The results in this text go back to patent EP2343287A1, “New 2-aminothiadiazole derivatives” (Almirall, S.A., priority 2009, dated 2011).

The structures appear in SMILES notation.

In general, EC50 refers to the concentration at which the effect is half-maximal. A higher EC50 goes with lower potency in that assay.

The experiment has as its target S1P1 (Homo sapiens, UniProt P21453). Kind of experiment: 35S-GTPyS binding assay. Type of experiment: biochemical. To be noted: membranes; compounds at 0.1nM-10µM; 0.1nM 35S-GTPyS; 10µM S1P used as 100% maximum efficacy; 90 min at room temperature. The procedure:
The effect of the compounds was measured using a 35S-GTPyS binding assay. Briefly, membranes were incubated in a buffer containing 20 mM HEPES pH 7.4, 100 mM NaCl, 10 mM MgCl2, 10µM GDP, 50µg/ml saponin and 0.2% fatty acid-free BSA at various concentrations (0.1nM-10µM) and 0.1nM 35S-GTPyS. 10µM S1P was used as 100% maximum efficacy. The assay was incubated for 90 min at room temperature with gentle mixing, and terminated by filtrating the reaction mixture through GF/C filter plates using the Manifold Filtration System. The filters were immediately washed with sodium phosphate pH 7.4 buffers. After drying the filter plate's scintillant liquid were added to each well and 35S-GTPyS binding was measured on a Trilux Scintillation Counter.

Chain of S1P1 (P21453 whole entry, species assumed): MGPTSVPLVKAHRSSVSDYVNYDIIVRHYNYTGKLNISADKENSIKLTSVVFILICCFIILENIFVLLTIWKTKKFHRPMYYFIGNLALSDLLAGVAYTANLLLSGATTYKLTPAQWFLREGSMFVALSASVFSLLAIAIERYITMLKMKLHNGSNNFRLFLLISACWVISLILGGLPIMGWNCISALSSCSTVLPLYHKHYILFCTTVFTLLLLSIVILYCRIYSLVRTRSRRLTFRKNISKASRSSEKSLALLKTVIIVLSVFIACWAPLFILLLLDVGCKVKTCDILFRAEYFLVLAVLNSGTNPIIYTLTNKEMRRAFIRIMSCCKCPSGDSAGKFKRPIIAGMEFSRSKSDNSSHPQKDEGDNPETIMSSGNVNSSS

On to `CCCCN(Cc1ccccc1Cl)c1nnc(-c2cc(C)c(OC)c(C)c2)s1` [Example 1, N-Butyl-N-(2-chlorobenzyl)-5-(4-methoxy-3,5-dimethylphenyl)-1,3,4-thiadiazol-2-amine], for which a half-maximal effect (EC50) was put at 39 nM.

`CCCCN(Cc1c(Cl)cccc1Cl)c1nnc(-c2ccnc(C)c2)s1` [Example 16, N-Butyl-N-(2,6-dichlorobenzyl)-5-(2-methylpyridin-4-yl)-1,3,4-thiadiazol-2-amine] returned an EC50 of 18 nM.

`CCCCN(Cc1ccccc1Cl)c1nnc(-c2cc(C)c(OC[C@H](O)CO)c(C)c2)s1` [Example 29, (2R)-3-(4-{5-[Butyl(2-chlorobenzyl)amino]-1,3,4-thiadiazol-2-yl}-2,6-dimethyl-phenoxy)propane-1,2-diol] came in with a concentration for a half-maximal effect (EC50) of 15 nM.

`CCCCN(Cc1ccccc1Cl)c1nnc(-c2cc(C)c(OCC(O)CN)c(C)c2)s1` (stereo not shown) [Example 34, 1-Amino-3-(4-{5-[butyl(2-chlorobenzyl)amino]-1,3,4-thiadiazol-2-yl}-2,6-dimethyl-phenoxy)propan-2-ol] had an EC50 of 32 nM.

In the case of `CCCCN(Cc1ccccc1F)c1nnc(-c2cc(C)c(OCCN3CC(C(=O)O)C3)c(C)c2)s1` [Example 35, 1-[2-(4-{5-[Butyl(2-fluorobenzyl)amino]-1,3,4-thiadiazol-2-yl}-2,6-dimethyl-phenoxy)ethyl]azetidine-3-carboxylic acid], the EC50 is 33 nM.

Consider `CCCCN(Cc1ccccc1F)c1nnc(-c2cc(C)c(OCCNCCC(=O)O)c(C)c2)s1` [Example 36, N-[2-(4-{5-[Butyl(2-fluorobenzyl)amino]-1,3,4-thiadiazol-2-yl}-2,6-dimethyl-phenoxy)ethyl]-beta-alanine], for which the midpoint of the response, the EC50, lay at 5 nM.

`CCCCN(c1nnc(-c2ccc(CN3CC(C(=O)O)C3)cc2)s1)S(=O)(=O)Cc1ccccc1` [Example 43, 1-(4-{5-[(Benzylsulfonyl)(butyl)amino]-1,3,4-thiadiazol-2-yl}benzyl)azetidine-3-carboxylic acid] registered an EC50 of 123 nM. This EC50 lies about 25-fold higher than the previous one.
